Results published in patent US20040142393A1, “Methods of use of compounds with preptin function” (priority 2002, published 2004).

Tests used:
NIH-3T3 fibroblast cells = assay: Stimulation of proliferation of NIH-3T3 cells (3H-thymidine uptake); format: cell-based; settings: 10, 50, 100 and 500 nM preptin; FIG. 1
Procedure: NIH-3T3 cells may be used for various purposes including research regarding mitogenicity investigations. See, e.g., Buergisser et al. (1990). BiochemBiophys Res Comm 169(3): 832-839; Burgisser et al. (1991). J Biol. Chem 266(2): 1029-33; Yang et al. (1996). Endocrinol 137(7): 2766-2773; Geddes et al. (2001). Prot Engin 14(1): 61-65. NIH-3T3 cells were seeded in 24 well plates at a density of 3×10^4 cells/well. Cells were grown at 37° C. for 24 hours in high glucose DMEM (supplemented with 30 mM sodium hydrogen carbonate, 2 mM L-glutamine, 10^5 IU/l penicillin, 0.01% streptomycin sulphate) and 10% fetal calf serum, after which time they were serum starved for 24 hours in high DMEM and 0.2% BSA. […] This alkaline cell lysate was then neutralized with 200 μl of 0.2M HCl before 300 μl aliquots were mixed with 2 ml of Starscint scintillation fluid, and counted on a scintillation counter.
One method of measuring cell proliferation is via the incorporation of labeled nucleotides (e.g., [3H]-thymidine) into- newly synthesized DNA during cell division. For example, one of the most familiar and widely used methods for quantifying cell proliferation is the measurement of tritiated thymidine ([3H]-thymidine) incorporation. […]

INS-1E β-cells = assay: Stimulation of proliferation of INS-1E β-cells (3H-thymidine uptake); format: cell-based; settings: general statement; test with 10 nM rat preptin in INS-1E cells, FIG. 2
Procedure: INS-1E cells were seeded in 24 well plates at a density of 2×10^5 cells/well. Cells were grown at 37° C. for 24 hours in modified RPMI-1640 (GIBCO R-1383 Lot108H83032; supplemented with 23.8 mM sodium hydrogen carbonate, 2 mM L-glutamine, 10 mM HEPES, 50 μM β-Mercaptoethanol, 1 mM Sodium Pyruvate, 10^5 IU/l penicillin, 0.01% streptomycin sulphate) and 10% fetal calf serum, after which time they were serum starved for 24 hours in modified RPMI-1640. The serum free medium was then replaced with 500 μl of RPMI-1640 containing the following:
0% fetal calf serum (negative control), 10% fetal calf serum (positive control), 10 nM of rat preptin (rPreptin 10 nM), 10 nM of human GLP-1 (hGLP-1 10 nM), 10 nM of human IGF-II (hIGF-II 10 nM), and cells were incubated for a further 18 hours before the addition of 5 μCi of ^3H-thymidine to each well. After a further 6 hours incubation, medium was aspirated and cells were washed twice with cold PBS, once with cold 5% TCA, and twice with cold 100% ethanol. Plates were then air-dried for 30 minutes before cells were solubilized with 400 μl of 0.5M NaOH. This alkaline c ell lysate was then neutralized with 400 μl of 0.5M HCl before 500 μl aliquots were mixed with 2 ml of Starscint scintillation fluid, and counted on a scintillation counter. […]

insulin secretion = settings: Buchanan et al. (2001) Biochem. J. 360: 431-439; cited from earlier work

preptin: peptide of 34 amino acids, Formula (I); corresponds to Asp69-Leu102 of proinsulin-like growth factor II (DVSTPPTVLPDNFPRYPVGKFFQYDTWKQSTQRL; Preptin; UniProt P01344 93-126, looked up)
effect on the proliferation of NIH-3T3 fibroblast cells (tritiated thymidine uptake) (NIH-3T3 fibroblast cells): dose dependent effect
proliferation of pancreatic islet β-cells (INS-1E β-cells): stimulate proliferation
effect on insulin secretion (insulin secretion): enhance, but not initiate, insulin secretion
